Data: patent US20260305610A1, “TRIAZOLE COMPOUND, AND PREPARATION METHOD THEREFOR, HERBICIDAL COMPOSITION AND USE THEREOF” (QINGDAO KINGAGROOT CHEMICAL COMPOUND CO., LTD., priority 2023, published 2026)

Tests used:
Assay type in all cases: in vivo
Cyperus iria = assay: Pre-emergence sealing experiment for water-seeding; parameters: key: 9: completely dead; 8: growth control rate is greater than or equal to 90% and less than 100%; 7: growth control rate is greater than or equal to 80% and less than 90%; 6: growth control rate is greater than or equal to 70% and less than 80%; growth control rate is greater than or equal to 50% and less than 70%; 4: growth control rate is greater than or equal to 30% and less than 50%; growth control rate is greater than or equal to 20% and less than 30%; growth control rate is greater than or equal to 10% and less than 20%; growth control rate is less than 10%; 0: no effect; conditions: 15 days, sulfonylurea-resistant strain
Description: (§1) The activity level criteria for plant damage (i.e., growth control rate) are as follows: • Level 9: completely dead; • Level 8: growth control rate is greater than or equal to 90% and less than 100%; • Level 7: growth control rate is greater than or equal to 80% and less than 90%; • Level 6: growth control rate is greater than or equal to 70% and less than 80%; • Level 5: growth control rate is greater than or equal to 50% and less than 70%; • Level 4: growth control rate is greater than or equal to 30% and less than 50%; • Level 3: growth control rate is greater than or equal to 20% and less than 30%; • Level 2: growth control rate is greater than or equal to 10% and less than 20%; • Level 1: growth control rate is less than 10%; • Level 0: no effect.
(§2) The seeds of Leptochloa chinensis, Digitaria sanguinalis, Monochoria vaginalis (sulfonylurea-resistant strain, collected from Hunan, China), Cyperus iria (sulfonylurea-resistant strain, collected from Jiangsu, China), Huaidao (rice cultivar), etc. were broadcasted on the surface of nutrition bowls filled with soil and fully covered by soil. The prepared nutrition bowls were then placed in a cultivation box, with water filled to a suitable height to keep the soil in the nutrition bowls moist. The test compounds of the present invention were individually dissolved with mixed solutions of acetone and Tween-80, then diluted into solution of a certain concentration using a certain amount of water and sprayed using a spray tower. The plants were placed on a greenhouse seedbed and cultured for 15 days, and the experimental results were then collected. The compounds were applied at 120, 60, 30 and 15 g a.i./ha in triplicate and the results were averaged. The effects were evaluated according to the above activity level criteria.

Leptochloa chinensis = assay: Pre-emergence sealing experiment for water-seeding; parameters: key: 9: completely dead; 8: growth control rate is greater than or equal to 90% and less than 100%; 7: growth control rate is greater than or equal to 80% and less than 90%; 6: growth control rate is greater than or equal to 70% and less than 80%; growth control rate is greater than or equal to 50% and less than 70%; 4: growth control rate is greater than or equal to 30% and less than 50%; growth control rate is greater than or equal to 20% and less than 30%; growth control rate is greater than or equal to 10% and less than 20%; growth control rate is less than 10%; 0: no effect; conditions: 15 days
Description: as §1, §2

Digitaria sanguinalis = assay: Pre-emergence sealing experiment for water-seeding; parameters: key: 9: completely dead; 8: growth control rate is greater than or equal to 90% and less than 100%; 7: growth control rate is greater than or equal to 80% and less than 90%; 6: growth control rate is greater than or equal to 70% and less than 80%; growth control rate is greater than or equal to 50% and less than 70%; 4: growth control rate is greater than or equal to 30% and less than 50%; growth control rate is greater than or equal to 20% and less than 30%; growth control rate is greater than or equal to 10% and less than 20%; growth control rate is less than 10%; 0: no effect; conditions: 15 days
Description: as §1, §2

Monochoria vaginalis = assay: Pre-emergence sealing experiment for water-seeding; parameters: key: 9: completely dead; 8: growth control rate is greater than or equal to 90% and less than 100%; 7: growth control rate is greater than or equal to 80% and less than 90%; 6: growth control rate is greater than or equal to 70% and less than 80%; growth control rate is greater than or equal to 50% and less than 70%; 4: growth control rate is greater than or equal to 30% and less than 50%; growth control rate is greater than or equal to 20% and less than 30%; growth control rate is greater than or equal to 10% and less than 20%; growth control rate is less than 10%; 0: no effect; conditions: 15 days, sulfonylurea-resistant strain
Description: as §1, §2

weeds = assay: Activity assay of compositions: soil sealing treatment (S), fresh weight inhibition and combined effect (Gowing method); conditions: Silene conoidea, 21 d
How it was run: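 Pre-emergence soil treatment: pre-germinated seeds sown 72 h earlier, sprayed at 450 kg/ha spray volume, 0.3 MPa; compounds in acetone diluted with 0.1% Tween-80. Greenhouse 20-30 °C; fresh weight of surviving weeds measured 21 days after treatment, 4 replicates. Expected mixture inhibition by Gowing formula, E0=X+Y−X*Y/100.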

[1] = test system: monocotyledonous and dicotyledonous weeds; assay: Pre-emergence test experiment (weeds); parameters: key: 9: completely dead; 8: growth control rate is greater than or equal to 90% and less than 100%; 7: growth control rate is greater than or equal to 80% and less than 90%; 6: growth control rate is greater than or equal to 70% and less than 80%; growth control rate is greater than or equal to 50% and less than 70%; 4: growth control rate is greater than or equal to 30% and less than 50%; growth control rate is greater than or equal to 20% and less than 30%; growth control rate is greater than or equal to 10% and less than 20%; growth control rate is less than 10%; 0: no effect
major crops = assay: Pre-emergence test experiment (crops); parameters: key: 9: completely dead; 8: growth control rate is greater than or equal to 90% and less than 100%; 7: growth control rate is greater than or equal to 80% and less than 90%; 6: growth control rate is greater than or equal to 70% and less than 80%; growth control rate is greater than or equal to 50% and less than 70%; 4: growth control rate is greater than or equal to 30% and less than 50%; growth control rate is greater than or equal to 20% and less than 30%; growth control rate is greater than or equal to 10% and less than 20%; growth control rate is less than 10%; 0: no effect
[2] = test system: Echinochloa crusgalli, Schoenoplectiella juncoides and Bidens tripartita; assay: Resistance of collected weed seeds to pyrazosulfuron-ethyl; conditions: conventional doses; seeds collected from Heilongjiang, China

| SMILES | Control effect of B applied alone in a corresponding dose (%) (weeds; B 15 g a.i./ha) | Control effect of B applied alone in a corresponding dose (%) (weeds; B 30 g a.i./ha) | activity level (growth control rate, fresh weight), Cyperus iria (Cyperus iria; 15 g a.i./ha) | activity level (growth control rate, fresh weight), Leptochloa chinensis (Leptochloa chinensis; 15 g a.i./ha) | activity level (growth control rate, fresh weight), Digitaria sanguinalis (Digitaria sanguinalis; 15 g a.i./ha) | activity level (growth control rate, fresh weight), Monochoria vaginalis (Monochoria vaginalis; 15 g a.i./ha) | Pre-emergence activity level (growth control rate) on Amaranthus retroflexus ([1]; 15 g a.i./ha) | Pre-emergence activity level (growth control rate) on Descurainia sophia ([1]; 15 g a.i./ha) | Pre-emergence activity level (growth control rate) on Digitaria sanguinalis ([1]; 15 g a.i./ha) | Pre-emergence activity level (growth control rate) on Setaria viridis ([1]; 15 g a.i./ha) | Pre-emergence activity level (growth control rate) on Solanum nigrum ([1]; 15 g a.i./ha) | Pre-emergence activity level (growth control rate) on Veronica ([1]; 15 g a.i./ha) | Pre-emergence plant damage level (growth control rate) on Corn (major crops; 15 g a.i./ha) | Pre-emergence plant damage level (growth control rate) on Cotton (major crops; 15 g a.i./ha) | Pre-emergence plant damage level (growth control rate) on Soybean (major crops; 15 g a.i./ha) | also measured |
| --- | --- | --- | --- | --- | --- | --- | --- | --- | --- | --- | --- | --- | --- | --- | --- | --- |
| COC(=O)c1ccccc1CS(=O)(=O)NC(=O)Nc1nc(OC)cc(OC)n1 [Bensulfuron-methyl, bensulfuron-methyl, reference compound] | 43.7 | 60.5 |  |  |  |  |  |  |  |  |  |  |  |  |  | activity level (growth control rate, fresh weight), Cyperus iria (Cyperus iria; 30 g a.i./ha): 5 (growth control rate is greater than or equal to 50% and less than 70%); activity level (growth control rate, fresh weight), Leptochloa chinensis (Leptochloa chinensis; 30 g a.i./ha): 3 (growth control rate is greater than or equal to 20% and less than 30%); activity level (growth control rate, fresh weight), Digitaria sanguinalis (Digitaria sanguinalis; 30 g a.i./ha): 4 (growth control rate is greater than or equal to 30% and less than 50%); activity level (growth control rate, fresh weight), Monochoria vaginalis (Monochoria vaginalis; 30 g a.i./ha): 2 (growth control rate is greater than or equal to 10% and less than 20%) |
| Cc1ccc(-n2cnc(C(F)(F)F)n2)nc1Oc1cccc(C(F)(F)F)c1 [Compound 8] |  |  | 9 | 9 | 9 | 9 | 9 | 9 | 9 | 9 | 9 | 9 | 0 | 0 | 0 |  |
| CCc1ccc(-n2cnc(C(F)(F)F)n2)nc1Oc1cccc(C(F)(F)F)c1 [Compound 16] |  |  | 9 | 9 | 9 | 9 | 9 | 9 | 9 | 9 | 9 | 9 | 0 | 0 | 0 |  |
| COCc1ccc(-n2cnc(C(F)(F)F)n2)nc1Oc1cccc(C(F)(F)F)c1 [Compound 23] |  |  | 9 | 9 | 9 | 9 |  |  |  |  |  |  |  |  |  | Pre-emergence activity level (growth control rate) on Amaranthus retroflexus ([1]; 30 g a.i./ha): 9; Pre-emergence activity level (growth control rate) on Descurainia sophia ([1]; 30 g a.i./ha): 9; Pre-emergence activity level (growth control rate) on Digitaria sanguinalis ([1]; 30 g a.i./ha): 9; Pre-emergence activity level (growth control rate) on Setaria viridis ([1]; 30 g a.i./ha): 8 (growth control rate is greater than or equal to 90% and less than 100%); Pre-emergence activity level (growth control rate) on Solanum nigrum ([1]; 30 g a.i./ha): 9; Pre-emergence activity level (growth control rate) on Veronica ([1]; 30 g a.i./ha): 9; Pre-emergence plant damage level (growth control rate) on Corn (major crops; 30 g a.i./ha): 0; Pre-emergence plant damage level (growth control rate) on Cotton (major crops; 30 g a.i./ha): 0; Pre-emergence plant damage level (growth control rate) on Soybean (major crops; 30 g a.i./ha): 0 |
| CCOC(=O)c1cnn(C)c1S(=O)(=O)NC(=O)Nc1nc(OC)cc(OC)n1 [pyrazosulfuron-ethyl, reference compound] | 50.4 | 65.6 |  |  |  |  |  |  |  |  |  |  |  |  |  | resistance of collected weed seeds [2]: resistant to conventional doses |
